Data: PubChem BioAssay AID1259407 (Chemical Carcinogenesis Research Information System (CCRIS), 2018)
Active and inactive are the calls of the source. No rule for the calls is given here.

Tested on: CCRIS mutagenicity, Ames/micronucleus/aberration tests
Assay: CCRIS mutagenicity studies

For `C=CCc1ccc(OC)cc1`, the mutagenic call (Test System: AMES SALMONELLA TYPHIMURIUM, Strain/Indicator: TA98, Metabolic Activation: HAMSTER, LIVER, S-9, AROCLOR 1254 (10%), Method: PREINCUBATION) was “inactive; negative”, the mutagenic call (Test System: AMES SALMONELLA TYPHIMURIUM, Strain/Indicator: TA98, Metabolic Activation: NONE, Method: PREINCUBATION) was “inactive; negative” and the mutagenic call (Test System: AMES SALMONELLA TYPHIMURIUM, Strain/Indicator: TA98, Metabolic Activation: NONE, Method: STANDARD PLATE) was “inactive; negative”. The mutagenic call (Test System: AMES SALMONELLA TYPHIMURIUM, Strain/Indicator: TA98, Metabolic Activation: RAT, LIVER, S-9, AROCLOR 1254 (10%), Method: PREINCUBATION) was “inactive; negative”, the mutagenic call (Test System: AMES SALMONELLA TYPHIMURIUM, Strain/Indicator: TA98, Metabolic Activation: RAT, LIVER, S-9, AROCLOR 1254, Method: STANDARD PLATE) was “inactive; negative” and the mutagenic call (Test System: AMES SALMONELLA TYPHIMURIUM, Strain/Indicator: TA100, Metabolic Activation: HAMSTER, LIVER, S-9, AROCLOR 1254 (10%), Method: PREINCUBATION) was “inactive; negative”. For the same compound, the mutagenic call (Test System: AMES SALMONELLA TYPHIMURIUM, Strain/Indicator: TA100, Metabolic Activation: NONE, Method: PREINCUBATION) was “inactive; negative”, the mutagenic call (Test System: AMES SALMONELLA TYPHIMURIUM, Strain/Indicator: TA100, Metabolic Activation: NONE, Method: STANDARD PLATE) was “inactive; negative” and the mutagenic call (Test System: AMES SALMONELLA TYPHIMURIUM, Strain/Indicator: TA100, Metabolic Activation: RAT, LIVER, S-9, AROCLOR 1254 (10%), Method: PREINCUBATION) was “inactive; negative”. For the same compound, the mutagenic call (Test System: AMES SALMONELLA TYPHIMURIUM, Strain/Indicator: TA100, Metabolic Activation: RAT, LIVER, S-9, AROCLOR 1254, Method: STANDARD PLATE) was “inactive; negative”, the mutagenic call (Test System: AMES SALMONELLA TYPHIMURIUM, Strain/Indicator: TA1535, Metabolic Activation: HAMSTER, LIVER, S-9, AROCLOR 1254 (10%), Method: PREINCUBATION) was “inactive; negative” and the mutagenic call (Test System: AMES SALMONELLA TYPHIMURIUM, Strain/Indicator: TA1535, Metabolic Activation: NONE, Method: PREINCUBATION) was “inactive; negative”. For the same compound, the mutagenic call (Test System: AMES SALMONELLA TYPHIMURIUM, Strain/Indicator: TA1535, Metabolic Activation: NONE, Method: STANDARD PLATE) was “inactive; negative”, the mutagenic call (Test System: AMES SALMONELLA TYPHIMURIUM, Strain/Indicator: TA1535, Metabolic Activation: PAPS, Method: STANDARD PLATE) was “inactive; negative” and the mutagenic call (Test System: AMES SALMONELLA TYPHIMURIUM, Strain/Indicator: TA1535, Metabolic Activation: RAT, LIVER, S-9, AROCLOR 1254 (10%), Method: PREINCUBATION) was “inactive; negative”. For the same compound, the mutagenic call (Test System: AMES SALMONELLA TYPHIMURIUM, Strain/Indicator: TA1535, Metabolic Activation: RAT, LIVER, S-9, AROCLOR 1254, PAPS, Method: STANDARD PLATE) was “active; positive”, the mutagenic call (Test System: AMES SALMONELLA TYPHIMURIUM, Strain/Indicator: TA1535, Metabolic Activation: RAT, LIVER, S-9, AROCLOR 1254, Method: STANDARD PLATE) was “inactive; negative” and the mutagenic call (Test System: AMES SALMONELLA TYPHIMURIUM, Strain/Indicator: TA1537, Metabolic Activation: HAMSTER, LIVER, S-9, AROCLOR 1254 (10%), Method: PREINCUBATION) was “inactive; negative”. For the same compound, the mutagenic call (Test System: AMES SALMONELLA TYPHIMURIUM, Strain/Indicator: TA1537, Metabolic Activation: NONE, Method: PREINCUBATION) was “inactive; negative”, the mutagenic call (Test System: AMES SALMONELLA TYPHIMURIUM, Strain/Indicator: TA1537, Metabolic Activation: NONE, Method: STANDARD PLATE) was “inactive; negative” and the mutagenic call (Test System: AMES SALMONELLA TYPHIMURIUM, Strain/Indicator: TA1537, Metabolic Activation: RAT, LIVER, S-9, AROCLOR 1254 (10%), Method: PREINCUBATION) was “inactive; negative”. The mutagenic call (Test System: AMES SALMONELLA TYPHIMURIUM, Strain/Indicator: TA1537, Metabolic Activation: RAT, LIVER, S-9, AROCLOR 1254, Method: STANDARD PLATE) was “inactive; negative”, the mutagenic call (Test System: AMES SALMONELLA TYPHIMURIUM, Strain/Indicator: TA1538, Metabolic Activation: NONE, Method: STANDARD PLATE) was “inactive; negative” and the mutagenic call (Test System: AMES SALMONELLA TYPHIMURIUM, Strain/Indicator: TA1538, Metabolic Activation: RAT, LIVER, S-9, AROCLOR 1254, Method: STANDARD PLATE) was “inactive; negative”. The mutagenic call (Test System: UDS RAT HEPATOCYTES, Strain/Indicator: THY INCORP, Metabolic Activation: NONE, Method: IN VITRO) was “active; positive” and the mutagenic call (Test System: UDS RAT HEPATOCYTES, Strain/Indicator: THY INCORP, Metabolic Activation: NONE, Method: IN VIVO) was “active; positive”.

For `CCCCN[N+](=O)[O-]`, the mutagenic call (Test System: E. COLI, Strain/Indicator: WP2 (HCR-), Metabolic Activation: NONE) was “active; positive”.

`Nc1nc2c(ncn2COC(CO)CO)c(=O)[nH]1` was tested, and the mutagenic call (End Point: IN VITRO CHROMOSOMAL ABERRATIONS, Test System: CHO CELLS (CHO-HSVTK), Metabolic Activation: NONE) was “active; positive (structural changes); concentration chosen also induced apoptosis”.

`Nc1ccn([C@@H]2CS[C@H](CO)O2)c(=O)n1` was tested, and the mutagenic call (Test System: Human TK6 Lymphoblastoid Cells, Strain/Indicator: HPRT, Metabolic Activation: None, Method: Standard Plate) was “active; positive”, the mutagenic call (Test System: Human TK6 Lymphoblastoid Cells, Strain/Indicator: TK, Metabolic Activation: None, Method: Standard Plate) was “active; positive” and the mutagenic call (Test System: Mouse lymphoma, Strain/Indicator: L5178Y (tk+/tk-), Metabolic Activation: None, Method: Suspension/plate) was “inactive; negative”. The mutagenic call (Test System: Mouse lymphoma, Strain/Indicator: L5178Y (tk+/tk-), Metabolic Activation: Rat, Liver, S-9, Aroclor 1254, Method: Suspension/plate) was “inactive; negative”.
